We go through 22 molecules from ChEMBL document CHEMBL4340520, “Hederagenin amide derivatives as potential antiproliferative agents” (Eur J Med Chem, 2019).

The test system of one test is MCF7. Kind of test: Cytotoxicity against human MCF7 cells assessed as reduction in cell viability after 96 hrs by SRB assay. Type of test: functional, cell-based. As to conditions: MCF7, 96 h. (In general: Sulforhodamine B stains cellular protein and so reports cell mass.)
For a further test, the system named is NIH3T3. Kind of test: Cytotoxicity against mouse NIH/3T3 cells assessed as reduction in cell viability after 96 hrs by SRB assay. As to conditions: NIH3T3, 96 h. The class given is cell-based.
In another test the test system is SW-1736. Briefly: Cytotoxicity against human SW1736 cells assessed as reduction in cell viability after 96 hrs by SRB assay. The class given is functional, cell-based. As to conditions: SW-1736, 96 h.
In test [1] the test system is A2780. Briefly: Cytotoxicity against human A2780 cells assessed as reduction in cell viability after 96 hrs by SRB assay. As to conditions: A2780, 96 h. Type of test: functional, cell-based.
The next test has as its system HT-29. Kind of test: Cytotoxicity against human HT-29 cells assessed as reduction in cell viability after 96 hrs by SRB assay. The class given is functional, cell-based. As to conditions: HT-29, 96 h.
For the next test, the system named is FaDu. Briefly: Cytotoxicity against human FADU cells assessed as reduction in cell viability after 96 hrs by SRB assay. Type of test: functional, cell-based.
The test system of test [2] is A2780. Briefly: Potency index, ratio of acetylated hederagenin EC50 to test compound EC50 for cytotoxicity against human A2780 cells. Type of test: functional.
For test [3], the system named is A2780. Kind of test: Potency index, ratio of betulinic acid EC50 to test compound EC50 for cytotoxicity against human A2780 cells. Type of test: functional.
In test [4] the test system is A2780. Briefly: Potency index, ratio of hederagenin EC50 to test compound EC50 for cytotoxicity against human A2780 cells. Type of test: functional.

Where only a bound is given, the exact number is not on record here.

What is called EC50 is the concentration that produces a half-maximal response. As for `CC(=O)OC[C@@]1(C)[C@@H]2CC[C@]3(C)[C@H](CC=C4[C@@H]5CC(C)(C)CC[C@]5(C(=O)NCc5cn(Cc6ccccc6F)nn5)CC[C@]43C)[C@@]2(C)CC[C@@H]1OC(C)=O`, the concentration for a half-maximal effect (EC50) with MCF7 is 2.8 µM; with NIH3T3, 6.9 µM; with SW-1736, 4.7 µM; with A2780 [1], 1.3 µM; with HT-29 it was 3 µM; with FaDu it was 2.8 µM.
Take `COC(=O)C(NC(=O)[C@]12CCC(C)(C)C[C@H]1C1=CC[C@@H]3[C@@]4(C)CC[C@H](O)[C@@](C)(CO)[C@@H]4CC[C@@]3(C)[C@]1(C)CC2)c1ccccc1` (some centres not stated): the 50% effective concentration (EC50) in the test with NIH3T3, in the test on SW-1736, in the test with A2780 [1], in the test with HT-29 and in the test with FaDu was above 30 µM each time.
Take `CC(=O)OC[C@@]1(C)[C@@H]2CC[C@]3(C)[C@H](CC=C4[C@@H]5CC(C)(C)CC[C@]5(C(=O)N5CCNCC5)CC[C@]43C)[C@@]2(C)CC[C@@H]1OC(C)=O`: the EC50 is 6.1 µM in the test on MCF7; 10.8 µM in the test with NIH3T3; 9 µM with SW-1736; 1.9 µM with A2780 [1]; 6.7 µM in the test on HT-29; 5.3 µM in the test on FaDu.
Regarding `CC(=O)OC[C@@]1(C)[C@@H]2CC[C@]3(C)[C@H](CC=C4[C@@H]5CC(C)(C)CC[C@]5(C(=O)N5CCCCC5)CC[C@]43C)[C@@]2(C)CC[C@@H]1OC(C)=O`, the concentration giving a half-maximal response (EC50) with MCF7 amounted to 6.2 µM; in the test with NIH3T3 it was 15.2 µM; in the test with SW-1736, 7.1 µM; in the test on A2780 [1] it was 2.8 µM; in the test with HT-29, 5.7 µM; in the test with FaDu, 5.5 µM.
In the case of `CC(=O)OC[C@@]1(C)[C@@H]2CC[C@]3(C)[C@H](CC=C4[C@@H]5CC(C)(C)CC[C@]5(C(=O)NCCc5ccccn5)CC[C@]43C)[C@@]2(C)CC[C@@H]1OC(C)=O`, the EC50 is 3.5 µM with MCF7; 7.1 µM in the test with NIH3T3; 3.4 µM in the test on SW-1736; 1.5 µM in the test with A2780 [1]; 3.3 µM with HT-29; 2.8 µM with FaDu.
In the case of `CC(=O)OC[C@@]1(C)[C@@H]2CC[C@]3(C)[C@H](CC=C4[C@@H]5CC(C)(C)CC[C@]5(C(=O)NCCCCN)CC[C@]43C)[C@@]2(C)CC[C@@H]1OC(C)=O`, the EC50 with MCF7, with NIH3T3, in the test with SW-1736, with A2780 [1], in the test on HT-29 and in the test on FaDu was above 30 µM throughout.
For `COC(=O)CNC(=O)[C@]12CCC(C)(C)C[C@H]1C1=CC[C@@H]3[C@@]4(C)CC[C@H](O)[C@@](C)(CO)[C@@H]4CC[C@@]3(C)[C@]1(C)CC2`, the EC50 with NIH3T3, in the test on SW-1736, in the test on A2780 [1], in the test on HT-29 and in the test on FaDu was above 30 µM in each case.
Consider `CC(=O)OC[C@@]1(C)[C@@H]2CC[C@]3(C)[C@H](CC=C4[C@@H]5CC(C)(C)CC[C@]5(C(=O)O)CC[C@]43C)[C@@]2(C)CC[C@@H]1OC(C)=O`, for which the EC50 was 9.8 µM with MCF7; 9.6 µM with NIH3T3; 17.7 µM in the test with SW-1736; 11.9 µM in the test with A2780 [1]; 19 µM in the test with HT-29; 15.4 µM in the test on FaDu.
Take `CC(=O)OC[C@@]1(C)[C@@H]2CC[C@]3(C)[C@H](CC=C4[C@@H]5CC(C)(C)CC[C@]5(C(=O)NCc5cn(Cc6ccccc6Br)nn5)CC[C@]43C)[C@@]2(C)CC[C@@H]1OC(C)=O`: the 50% effective concentration (EC50) in the test on MCF7 is 3 µM; in the test with NIH3T3, 3.4 µM; in the test on SW-1736, 2.3 µM; in the test on A2780 [1], 1.7 µM; in the test on HT-29 it was 1.9 µM; in the test with FaDu, 2.5 µM.
In the case of `CC(=O)OC[C@@]1(C)[C@@H]2CC[C@]3(C)[C@H](CC=C4[C@@H]5CC(C)(C)CC[C@]5(C(=O)NCCN5CCCC5)CC[C@]43C)[C@@]2(C)CC[C@@H]1OC(C)=O`, the EC50 was 2.6 µM in the test with MCF7; 2.2 µM in the test with NIH3T3; 3.6 µM in the test with SW-1736; 1.9 µM in the test with A2780 [1]; 1.5 µM in the test with HT-29; 4 µM in the test on FaDu.
`CC1(C)CC[C@]2(C(=O)O)CC[C@]3(C)C(=CC[C@@H]4[C@@]5(C)CC[C@H](O)[C@@](C)(CO)[C@@H]5CC[C@]43C)[C@@H]2C1` [HEDERAGENIN]: the concentration for a half-maximal effect (EC50) in the test with MCF7, with NIH3T3, in the test on SW-1736, with A2780 [1], in the test with HT-29 and with FaDu was above 30 µM throughout.
Turning to `CC(=O)OC[C@@]1(C)[C@@H]2CC[C@]3(C)[C@H](CC=C4[C@@H]5CC(C)(C)CC[C@]5(C(=O)NCc5cn(Cc6ccccc6Cl)nn5)CC[C@]43C)[C@@]2(C)CC[C@@H]1OC(C)=O`, the 50% effective concentration (EC50) was found to be 2.6 µM with MCF7; 3.6 µM in the test on NIH3T3; 1.8 µM with SW-1736; 1.7 µM in the test on A2780 [1]; 1.7 µM in the test on HT-29; 2.2 µM in the test with FaDu.
For `COC(=O)CNC(=O)[C@]12CCC(C)(C)C[C@H]1C1=CC[C@@H]3[C@@]4(C)CC[C@H](OC(C)=O)[C@@](C)(COC(C)=O)[C@@H]4CC[C@@]3(C)[C@]1(C)CC2`, the EC50 with MCF7 came out at 4.5 µM; in the test with NIH3T3, 8.4 µM; in the test with SW-1736 it was 4.8 µM; in the test on A2780 [1], 1.7 µM; with HT-29, 3.7 µM; in the test with FaDu it was 3.1 µM.
As to `CC1(C)CC[C@]2(C(=O)N3CCCCC3)CC[C@]3(C)C(=CC[C@@H]4[C@@]5(C)CC[C@H](O)[C@@](C)(CO)[C@@H]5CC[C@]43C)[C@@H]2C1`, the EC50 came out at 7.8 µM in the test on MCF7; 18.5 µM in the test on NIH3T3; 19.2 µM in the test with SW-1736; 18.2 µM in the test with A2780 [1]; 18.3 µM with HT-29; 20.8 µM in the test on FaDu.
As for `CC(=O)OC[C@@]1(C)[C@@H]2CC[C@]3(C)[C@H](CC=C4[C@@H]5CC(C)(C)CC[C@]5(C(=O)NCCN5CCOCC5)CC[C@]43C)[C@@]2(C)CC[C@@H]1OC(C)=O`, the EC50 came to 3.8 µM in the test with MCF7; 7.6 µM with NIH3T3; 3.9 µM with SW-1736; 1.2 µM in the test with A2780 [1]; 2.8 µM in the test on HT-29; 3.3 µM in the test with FaDu.
Turning to `COC(=O)C(NC(=O)[C@]12CCC(C)(C)C[C@H]1C1=CC[C@@H]3[C@@]4(C)CC[C@H](OC(C)=O)[C@@](C)(COC(C)=O)[C@@H]4CC[C@@]3(C)[C@]1(C)CC2)c1ccccc1` (some centres not stated), the concentration for a half-maximal effect (EC50) stood at 5.7 µM in the test on MCF7; 12.9 µM with NIH3T3; 6.3 µM in the test on SW-1736; 3.3 µM in the test with A2780 [1]; 5.1 µM in the test with HT-29; 4.6 µM in the test with FaDu.
Take `C=C(C)[C@@H]1CC[C@]2(C(=O)O)CC[C@]3(C)[C@H](CC[C@@H]4[C@@]5(C)CC[C@H](O)C(C)(C)[C@@H]5CC[C@]43C)[C@@H]12` [BETULINIC ACID]: in the test with MCF7, the 50% effective concentration (EC50) is 12 µM.
As for `CC(=O)OC[C@@]1(C)[C@@H]2CC[C@]3(C)[C@H](CC=C4[C@@H]5CC(C)(C)CC[C@]5(C(=O)NCCN5CCCCC5)CC[C@]43C)[C@@]2(C)CC[C@@H]1OC(C)=O`, the EC50 amounted to 3.2 µM in the test on MCF7; 3.2 µM with NIH3T3; 4.7 µM with SW-1736; 2.1 µM with A2780 [1]; 2.1 µM in the test on HT-29; 4.3 µM in the test on FaDu.
As to `CC(=O)OC[C@@]1(C)[C@@H]2CC[C@]3(C)[C@H](CC=C4[C@@H]5CC(C)(C)CC[C@]5(C(=O)NCc5cn(Cc6ccccc6[N+](=O)[O-])nn5)CC[C@]43C)[C@@]2(C)CC[C@@H]1OC(C)=O`, the EC50 turned out to be 2.7 µM in the test with MCF7; 2.1 µM in the test on NIH3T3; 3.8 µM in the test on SW-1736; 1.6 µM in the test with A2780 [1]; 1.9 µM in the test on HT-29; 2.8 µM in the test with FaDu.
As to `CC1(C)CC[C@]2(C(=O)N3CCNCC3)CC[C@]3(C)C(=CC[C@@H]4[C@@]5(C)CC[C@H](O)[C@@](C)(CO)[C@@H]5CC[C@]43C)[C@@H]2C1`, the EC50 was 17.4 µM in the test on NIH3T3; above 30 µM with SW-1736; 19.4 µM in the test on A2780 [1]; 22.5 µM with HT-29; above 30 µM in the test with FaDu.
In the case of `CC1(C)CC[C@]2(C(=O)NCCCCN)CC[C@]3(C)C(=CC[C@@H]4[C@@]5(C)CC[C@H](O)[C@@](C)(CO)[C@@H]5CC[C@]43C)[C@@H]2C1`, the half-maximal effective concentration (EC50) in the test with MCF7 was above 30 µM; with NIH3T3, 7 µM; in the test with SW-1736, 12.2 µM; in the test on A2780 [1] it was 9.7 µM; in the test on HT-29, 6.1 µM; in the test on FaDu, above 30 µM.
Take `CC(=O)OC[C@@]1(C)[C@@H]2CC[C@]3(C)[C@H](CC=C4[C@@H]5CC(C)(C)CC[C@]5(C(=O)N5CCCC5)CC[C@]43C)[C@@]2(C)CC[C@@H]1OC(C)=O`: the EC50 in the test on MCF7 was 2.5 µM; in the test on NIH3T3 it was 9.6 µM; in the test with SW-1736, 1.7 µM; in the test on A2780 [1], 0.4 µM; in the test with HT-29, 1.8 µM; in the test with FaDu, 1.6 µM. Also, the “Ratio EC50” value in the test on A2780 [2] is 29; in the test with A2780 [3] it was 32; in the test on A2780 [4] it was 70.
